In US6451806B2, “Methods and compositions involving opioids and antagonists thereof” (Adolor Corporation, priority 1999, dated 2002):

Columns and labels:
[1] = tested on: effect of intravenous morphine sulfate on upper gastrointestinal motility; assay: Phase I study in healthy volunteers with intravenous morphine sulfate; assay type: in vivo, humans; conditions: 4 mg oral dose
[2] = solubility in water; assay type: physicochemical; conditions: except at low or high pH conditions
From the text: Zwitterionic character may be inherent to the compound, and may impart desirable properties such as poor systemic absorption and sustained local affect on the gut following oral administration.

[3] = tested on: loperamide-induced slowing of gut motility; assay: clinical crossover study of loperamide-induced slowing of gut motility (colonic transit time); assay type: in vivo; conditions: man, 8 mg b.i.d. oral loperamide
Protocol: A clinical study in man was an 8 subject multiple crossover study of the effects of oral pre-treatment with placebo, 2.4 mg or 24 mg t.i.d. of the compound of formula (II) on slowing of gut motility induced with 8 mg of b.i.d. of oral loperamide (a peripheral mu opioid agonist). […] The graph presents the effects of 2.4 or 24 mg of the compound of formula (II) on colonic transit time (in hours) following administration of loperamide. The loperamide dose was constant in the three treatment groups.

[4] = tested on: morphine-induced constipation in mice; assay: mouse model of opioid-induced constipation (charcoal meal transit time); assay type: in vivo
From the text: This establishes that the compound of formula (II) is a gut-selective and peripherally-selective mu antagonist compound. In addition, it is orally effective in preventing or reversing morphine-induced constipation in mice.

[5] = tested on: inhibition of gastrointestinal transit produced by MS Contin; assay: Phase I study in volunteers with oral sustained-release morphine (MS Contin); assay type: in vivo, humans; conditions: 3 mg oral three times daily for 4 days, MS Contin 30 mg twice daily
From the text: Pupil size was used as a surrogate measure of the morphine's analgesic activity.

[6] = tested on: postsurgical opioid effects, postoperative nausea and vomiting; assay: Phase II clinical study, partial colectomy or hysterectomy, postoperative nausea and vomiting (VAS); assay type: in vivo, humans; conditions: for patients reporting VAS nausea scores over 20 / patients exhibiting no nausea (highest VAS score=0): postoperative morphine or meperidine
Protocol: A 78 patient Phase II clinical study was conducted which compared two doses (2 mg and 12 mg) of the compound of formula (II) versus placebo in patients undergoing partial colectomy or simple or radical hysterectomy surgical procedures. All patients in this clinical study received morphine or meperidine infusions to treat postoperative pain. Oral doses of compound (II) or placebo were administered to block postsurgical opioid effects, including postoperative nausea and vomiting. Results of this study comparing patients receiving 12 mg of compound (II) and placebo are depicted graphically in FIGS. 2A and 2B.
The intensity of nausea was evaluated by patients on a 100-point visual analog scale (VAS) with VAS=0 being no nausea and VAS=100 being the worst nausea that a patient could imagine. The highest VAS nausea score (worst nausea) recorded for each patient was computed and the distributions of these maximum values were compared among the treatment groups. […] The overall treatment differences in the distributions were significant when compared using a Kruskal-Wallis test (P=0.0184). The improved outcomes observed in the 12 mg per day dose group are evident in the pairwise comparisons based on the Wilcoxon rank sum tests.

[7] = tested on: analgesia and pupil constriction produced by intravenous morphine sulfate; assay: Phase II clinical study, third molar extraction dental surgery, intravenous morphine sulfate; assay type: in vivo, humans; conditions: 4 mg total oral dose
[8] = tested on: opioid-induced nausea and pruritus; conditions: Yuan, C.-S. et al. Drug and Alcohol Dependence 1998, 52, 161; cited from earlier work

Row | Compound | effect of intravenous morphine sulfate on upper gastrointestinal motility ([1]; P<0.01) | morphine-induced nausea ([1]; P=0.07) | solubility in water [2] | loperamide-induced slowing of gut motility (colonic transit time) ([3]; 2.4 mg t.i.d. oral pre-treatment) | loperamide-induced slowing of gut motility (colonic transit time) ([3]; 24 mg t.i.d. oral pre-treatment) | reversal of morphine-induced constipation ([4]; chronic morphine treated mice) | prevention of acute morphine-induced constipation (charcoal meal transit time) ([4]; mice, orally administered) | MS Contin effects on pupil size (surrogate of analgesic activity) [5] | inhibition of gastrointestinal transit produced by oral sustained-release morphine [5] | reduction in postoperative pain control ([6]; 2 mg and 12 mg oral doses) | serious adverse side effects judged related to the compound ([6]; 2 mg and 12 mg oral doses) | patients reporting VAS nausea scores over 20 ([6]; 2 mg dose group) [%] | patients exhibiting no nausea (highest VAS score=0) ([6]; 2 mg per day oral) | patients exhibiting no nausea (highest VAS score=0) ([6]; 12 mg per day oral) [%] | patients reporting VAS nausea scores over 20 ([6]; 12 mg per day oral) [%] | distribution of highest VAS nausea score compared to placebo ([6]; 12 mg per day, Wilcoxon rank sum test, P=0.0072) | patients withdrawn for adverse effects [7] | antagonism of analgesia produced by intravenous morphine sulfate ([7]; patients) | antagonism of pupil constriction produced by intravenous morphine sulfate ([7]; patients) | incidence of opioid-induced nausea and pruritus [8]
1 | C[C@H]1CN(C[C@H](Cc2ccccc2)C(=O)NCC(=O)O)CCC1(C)c1cccc(O)c1 (some centres unmarked) [compound of formula (II)] | blocked the effect of intravenous morphine sulfate on upper gastrointestinal motility | trend toward antagonizing morphine-induced nausea | low solubility in water | prevented loperamide-induced slowing of gut motility | prevented loperamide-induced slowing of gut motility | even more potent in reversing morphine-induced constipation | prevented acute morphine-induced constipation | without antagonizing MS Contin® effects on pupil size | blocked the inhibition of gastrointestinal transit | None of the patients | No patients experienced serious adverse side effects | 67 | approximately 25% | ~40 | 27 | statistically significantly improved | No patients were withdrawn for adverse effects | did not antagonize | did not antagonize | 
2 | C[N@+]1(CC2CC2)CC[C@]23c4c5ccc(O)c4O[C@H]2C(=O)CC[C@@]3(O)[C@H]1C5 [methylnaltrexone] |  |  |  |  |  |  |  |  |  |  |  |  |  |  |  |  |  |  |  | effectively reduce the incidence of opioid-induced nausea and pruritus
